Measurements published in patent US20260217703A1, “INHIBITORS OF a-HEMOL YSIN OF STAPHYLOCOCCUS AUREUS” (HELMHOLTZ-ZENTRUM FÜR INFEKTIONSFORSCHUNG GMBH, priority 2022, published 2026).

How the values were obtained:
[1] = biological target: S. aureus Alpha hemolysin (Staphylococcus aureus, UniProt P09616); assay: cell-based
[2] = biological target: hemolysin alpha from Staphylococcus aureus (Staphylococcus aureus, UniProt P09616); assay: cell-based
hemolysin alpha from Staphylococcus aureus, sequence (P09616 27-319 limits assumed): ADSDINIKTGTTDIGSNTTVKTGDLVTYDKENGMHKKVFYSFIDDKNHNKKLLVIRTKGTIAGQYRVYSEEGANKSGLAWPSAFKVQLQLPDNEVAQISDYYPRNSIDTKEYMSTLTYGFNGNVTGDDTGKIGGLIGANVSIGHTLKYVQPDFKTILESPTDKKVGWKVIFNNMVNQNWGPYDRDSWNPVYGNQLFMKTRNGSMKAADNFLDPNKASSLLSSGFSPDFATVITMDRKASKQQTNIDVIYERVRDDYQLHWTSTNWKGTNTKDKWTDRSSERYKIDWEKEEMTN

S. aureus Alpha hemolysin, sequence (P09616 27-319 limits assumed): as above

Compound	IC50 [1]	IC50 [2]
COc1ccc(-c2ccc(NS(=O)(=O)c3nc4[nH]c(=O)c(=O)[nH]c4cc3C)cc2Cl)cc1F [Compound 14, N-(2-chloro-3′-fluoro-4′-methoxy-[1,1′-biphenyl]-4-yl)-7-methyl-2,3-dioxo-1,2,3,4-tetrahydropyrido[2,3-b]pyrazine-6-sulfonamide]	0.1 to 1 µM	0.03 to 0.1 µM
Cc1cc2[nH]c(=O)c(=O)[nH]c2nc1S(=O)(=O)Nc1ccc(-c2cncc(Cl)c2)c(Cl)c1 [Compound 11, N-(3-chloro-4-(5-chloropyridin-3-yl)phenyl)-7-methyl-2,3-dioxo-1,2,3,4-tetrahydropyrido[2,3-b]pyrazine-6-sulfonamide]	0.1 to 1 µM	0.1 to 1 µM
Cc1cc2[nH]c(=O)c(=O)[nH]c2nc1S(=O)(=O)Nc1ccc(-c2ccc3cc[nH]c3c2)c(Cl)c1 [Compound 16, N-(3-chloro-4-(1H-indol-6-yl)phenyl)-7-methyl-2,3-dioxo-1,2,3,4-tetrahydropyrido[2,3-b]pyrazine-6-sulfonamide]	0.1 to 1 µM	< 0.03 µM
Cc1cc2[nH]c(=O)c(=O)[nH]c2nc1S(=O)(=O)Nc1ccc(OC(F)(F)F)cc1 [Compound 22, 7-methyl-2,3-dioxo-N-(4-(trifluoromethoxy)phenyl)-1,2,3,4-tetrahydropyrido[2,3-b]pyrazine-6-sulfonamide]	< 0.03 µM	< 0.03 µM
